Laboratory results reported in patent US20240400542A1 (University of Virginia Patent Foundation, priority 2021, published 2024).

Columns and labels:
Assay in all cases: SILAC competitive chemical proteomic assay (TH211 probe, LC-MS/MS)
[1] = test system: Heat shock protein HSP 90-beta; assay type: cell-based, human; settings: TH207 inhibitor; HEK293T soluble fraction; tyrosine 61
Method: (§1) The light and heavy proteomes (2.3 mg/mL, 432 μL) prepared from HEK293T cells that were pretreated in situ with vehicle (DMSO) or the inhibitor (2 μM), respectively, at 37° C. for 1 hr followed by probe TH211 treatment (50 μM) for 2 h, were directly were subjected to click reaction with the desthiobiotin-PEG3-azide (10 mM in DMSO, 10 μL, final concentration 200 μM) in the presence of TCEP (50 mM, 10 μL), TBTA (1.7 mM, 33 μL) and CuSO4 (50 mM, 10 μL) at room temperature for 1 hr. The light and the heavy samples were mixed in the chloroform-methanol extraction step. The subsequent steps including reduction with dithiothreitol, alkylation with iodoacetamide, digestion with Trypsin/Lys-C, enrichment with avidin beads were conducted as previously described^26.

Perilipin-2 = target: T1, Perilipin-2 (Homo sapiens, UniProt Q99541); assay type: cell-based; settings: TH207 inhibitor; HEK293T soluble fraction; Q99541.2 tyrosine 190
T1 construct: endogenous in cells; host or cells: HEK293T
T1 sequence (Q99541 1-437): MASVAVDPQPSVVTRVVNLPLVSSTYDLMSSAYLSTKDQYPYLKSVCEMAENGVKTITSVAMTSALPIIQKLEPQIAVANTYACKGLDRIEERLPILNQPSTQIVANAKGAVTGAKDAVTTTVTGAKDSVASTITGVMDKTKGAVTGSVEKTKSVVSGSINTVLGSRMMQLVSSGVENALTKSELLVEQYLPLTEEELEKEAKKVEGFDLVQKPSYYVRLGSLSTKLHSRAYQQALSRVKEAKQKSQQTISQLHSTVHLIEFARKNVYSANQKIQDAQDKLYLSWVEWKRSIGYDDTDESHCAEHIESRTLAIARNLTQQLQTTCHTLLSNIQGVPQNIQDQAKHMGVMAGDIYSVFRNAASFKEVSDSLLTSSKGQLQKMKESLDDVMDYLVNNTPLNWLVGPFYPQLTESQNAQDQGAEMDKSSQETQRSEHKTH
Method: as §1

[2] = target: T2, Phosphatidylinositol transfer protein beta isoform (Homo sapiens, UniProt P48739); assay type: cell-based; settings: TH207 inhibitor, HEK293T soluble fraction
T2 construct: endogenous in cells; host or cells: HEK293T
T2 sequence (P48739 1-271): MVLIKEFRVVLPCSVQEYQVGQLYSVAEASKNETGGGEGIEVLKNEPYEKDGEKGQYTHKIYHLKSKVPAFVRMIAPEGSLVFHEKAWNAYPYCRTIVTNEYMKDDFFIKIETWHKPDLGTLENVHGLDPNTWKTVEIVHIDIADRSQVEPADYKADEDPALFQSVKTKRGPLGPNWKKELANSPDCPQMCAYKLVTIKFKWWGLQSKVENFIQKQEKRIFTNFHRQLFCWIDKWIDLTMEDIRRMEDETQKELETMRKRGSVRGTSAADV
Method: as §1

dCTP pyrophosphatase 1 = target: T3, dCTP pyrophosphatase 1 (Homo sapiens, UniProt Q9H773); assay type: cell-based; settings: TH207 inhibitor; HEK293T soluble fraction; Q9H773.1 tyrosine 129
T3 construct: endogenous in cells; host or cells: HEK293T
T3 sequence (Q9H773 1-170): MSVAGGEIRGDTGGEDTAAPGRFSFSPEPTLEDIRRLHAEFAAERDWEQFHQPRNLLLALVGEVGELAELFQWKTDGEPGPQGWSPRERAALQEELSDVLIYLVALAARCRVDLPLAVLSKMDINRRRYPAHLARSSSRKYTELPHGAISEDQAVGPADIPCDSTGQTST
Method: as §1

PFKL = target: T4, PFKL (Homo sapiens, UniProt P17858); assay type: cell-based
T4 construct: endogenous in cells; host or cells: HEK293T
T4 sequence (P17858 1-780): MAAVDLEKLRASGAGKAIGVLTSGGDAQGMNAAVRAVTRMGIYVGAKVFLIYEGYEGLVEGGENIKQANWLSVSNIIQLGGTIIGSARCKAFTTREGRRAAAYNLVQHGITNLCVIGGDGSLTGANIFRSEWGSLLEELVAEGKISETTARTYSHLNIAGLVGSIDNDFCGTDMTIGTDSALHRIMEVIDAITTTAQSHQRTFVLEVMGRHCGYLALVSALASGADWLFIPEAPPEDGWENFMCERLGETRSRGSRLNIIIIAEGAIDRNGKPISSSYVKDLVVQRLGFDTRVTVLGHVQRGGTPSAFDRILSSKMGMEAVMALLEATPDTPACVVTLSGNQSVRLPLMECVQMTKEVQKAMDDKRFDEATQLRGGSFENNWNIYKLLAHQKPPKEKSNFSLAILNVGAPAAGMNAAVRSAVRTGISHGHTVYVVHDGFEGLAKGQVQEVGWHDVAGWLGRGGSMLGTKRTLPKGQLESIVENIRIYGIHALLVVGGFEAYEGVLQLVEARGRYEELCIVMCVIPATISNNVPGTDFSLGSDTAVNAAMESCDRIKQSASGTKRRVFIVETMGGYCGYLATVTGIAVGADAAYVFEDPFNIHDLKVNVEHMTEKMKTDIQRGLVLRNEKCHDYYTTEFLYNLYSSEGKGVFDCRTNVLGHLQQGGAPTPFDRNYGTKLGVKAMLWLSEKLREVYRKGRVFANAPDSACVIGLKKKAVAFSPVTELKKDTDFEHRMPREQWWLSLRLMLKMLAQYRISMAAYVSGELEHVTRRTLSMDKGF
Method: as §1
Some SuTEx analogues with RF001 fragment were synthesized and characterized. The in situ competition assay was then conducted, during which HEK293T cells were treated with 1 μM of a SuTEx analogue for 1 h, followed by treatment with 25 μM of TH211 as the probe for 2 h. […] The analogues with electron-donating groups like methyl or methoxy on the para position of phenyl performed better than those with electron-withdrawing groups. Under the same condition, the IC5o of TH220 was determined as 305.6 nM. The identity of the bound protein was studied by LC-MS/MS. The assay results indicated PFKL as the potential target and that binding sites include Y674 and K677, since the ratio trends are the same as that found in the in situ competition assay. To study selective targeting of PFKL by the series of SuTEx analogues, Fag-PFKL, Flag-PFKM, and Flag-PFKP were overexpressed in HEK293T cells and in vitro competition assays were performed for comparison. […] To optimize these SuTEx ligands, another series of derivatives were synthesized and evaluated with TH233 as a negative control and TH220 as positive control, respectively. […] Compared to TH220, the probinding activity of XJ-2-103 with trifluoromethyl group at para position of the phenyl ring is not as good, which is consistent with the results shown in FIG. 18A.

Cc1ccc(S(=O)(=O)n2cc(CCN3CCC(=C(c4ccc(F)cc4)c4ccc(F)cc4)CC3)nn2)cc1 [TH207, 4-(Bis(4-fluorophenyl)methylene)-1-(2-(1-tosyl-1H-1,2,3-triazol-4-yl)ethyl)piperidine]
Normalized SILAC ratio (SR), Heat shock protein HSP 90-beta Y61 [1]: 1.5 | Normalized SILAC ratio (SR), Perilipin-2 Y190 (Perilipin-2): 3.5 | Normalized SILAC ratio (SR), Phosphatidylinositol transfer protein beta isoform K155 ([2]; P48739.2 lysine 155): 1.8 | Normalized SILAC ratio (SR), Phosphatidylinositol transfer protein beta isoform Y154 ([2]; P48739.2 tyrosine 154): 1.8 | Normalized SILAC ratio (SR), dCTP pyrophosphatase 1 Y129 (dCTP pyrophosphatase 1): 3 | SILAC ratios (SR) from competitive chemical proteomic assay (PFKL; HEK293T in situ, vehicle (light) vs inhibitor 2 μM (heavy) 1 hr, then TH211 50 μM 2 h, protein/site not given): 3.41 | Normalized SILAC ratio (SR), PFKL K677 (PFKL; TH207 inhibitor, HEK293T soluble fraction, P17858.6 lysine 677): 2.7 | Normalized SILAC ratio (SR), PFKL Y674 (PFKL; TH207 inhibitor, HEK293T soluble fraction, P17858.6 tyrosine 674): 2.7
